The record followed here is ChEMBL document CHEMBL1144763, “Synthesis of diglycosylceramides and evaluation of their iNKT cell stimulatory properties” (Bioorg Med Chem Lett, 2008).

Calls of active or inactive are those of the source. The rule behind the calls is not given here.

The subject of this test is DN3.2.D3. In words: Stimulation of IL2 release in mouse DN3.2.D3 cells by ELISA. It counts as functional, cell-based. For orientation: An ELISA detects its analyte on a solid surface through an enzyme-linked reagent.
For the molecule `CCCCCCCCCCCCCC[C@@H](O)[C@@H](O)[C@H](CO[C@H]1O[C@H](CO)[C@H](O)[C@H](O)[C@H]1O)NC(=O)CCCCCCC`, the outcome was Active.

Regarding `CCCCCCCCCCCCCC[C@@H](O)[C@@H](O)[C@H](CO[C@H]1O[C@H](CNC(C)=O)[C@H](O)[C@H](O)[C@H]1O[C@H]1O[C@H](CO)[C@H](O)[C@H](O)[C@H]1O)NC(=O)CCCCCCC`, the result was Active.

As to `CCCCCCCCCCCCCC[C@@H](O)[C@@H](O)[C@H](CO[C@H]1O[C@H](CNC(C)=O)[C@H](O)[C@H](O)[C@H]1O)NC(=O)CCCCCCC`, the outcome was Active.
